pIC50: −log10 of the molar value.

The test addresses T1, Hes1 dimer formation (Hes1-Hes1 interaction) (Rattus norvegicus, UniProt Q04666).
T1 construct: Glutathione-S-transferase (GST) fused rat Hes1(3–281) protein was expressed in Escherichia coli; GST (N, cleaved yes); GST (N); made in house; host or cells: Escherichia coli JM109 (pGEX-ratHes1 3-281)
T1 sequence (Q04666 3-281): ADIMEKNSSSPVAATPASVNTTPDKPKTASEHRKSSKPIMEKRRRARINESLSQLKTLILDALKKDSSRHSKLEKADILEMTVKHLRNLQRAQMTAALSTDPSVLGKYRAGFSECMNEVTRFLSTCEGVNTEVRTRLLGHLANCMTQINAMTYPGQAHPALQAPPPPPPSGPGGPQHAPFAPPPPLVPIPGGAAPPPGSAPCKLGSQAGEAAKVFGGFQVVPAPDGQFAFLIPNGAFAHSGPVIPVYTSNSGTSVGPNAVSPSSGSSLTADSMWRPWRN
Briefly: Hes1-Hes1 interaction fluorescent plate assay (Hes1 dimer formation inhibition). The class given is binding. From the text: It is essential to inhibit undesired PPIs in drug development, and bioactivity-guided isolation using the inhibitory activity of PPIs is an attractive method to obtain effective inhibitors. However, currently there are only a few examples of such approaches using PPI assay systems[22],[23]. We previously developed a Hes1-Hes1 interaction fluorescent plate assay and reported the screening results of our natural products compound library (Fig. 2A)[24]. Glutathione-S-transferase (GST) fused rat Hes1(3–281) protein was expressed in Escherichia coli and purified rat Hes1 protein was immobilized on the bottom of 96 well plates. We prevented GST-GST interactions, which would result in false positives, by preparing GST-free Hes1 protein by GST cleavage with Turbo3C protease. After labeling Hes1 with Cy3, this florescent Hes1 protein was added to the wells of the above plate and incubated for 24 h at 4 °C. Hes1-Hes1 interaction was successfully detected as Cy3 fluorescence intensity. Using this assay system, we screened our 118 plant extract library and identified the MeOH extract of Psidium guajava leaves to contain naturally occurring compounds that inhibit Hes1 dimer formation. The MeOH extract (29.9 g) was fractionated using Diaion HP-20 with a MeOH-acetone solvent system to afford fractions 1A to 1C. Active fraction 1A (27.2 g) was suspended in 10% aq. MeOH and partitioned with hexane, EtOAc and BuOH to obtain hexane (1.1 g), EtOAc (5.7 g), BuOH (4.7 g) and aqueous (18.9 g) soluble fractions. Part of the active BuOH soluble fraction was subjected to ODS column chromatography and reverse-phase HPLC. Activity-guided separation yielded ten compounds (1–10; Fig. 3). The isolated compounds were identified as morin (1)[25], isoquercitrin (2)[26], methyl gallate (3)[27], (+)-catechin (4)[28],[29], dihydrophaseic acid (5)[30], quercetin (6)[26],[31], avicularin (7)[32],[33], gallic acid (8)[34], protocatechuic acid (9)[35] and 4-hydroxybenzoic acid (10)[36] based on comparisons of their spectral data with spectra in the literature.
Hes1-bound microplate wells[24] (Nunc Immobilizer^TM Amino Plate, Thermo) were incubated with 50 μL of Cy3-labeled-Hes1 in NET-N buffer (NET buffer (20 mM Tris-HCl, pH 7.5, 200 mM NaCl, 1 mM EDTA) containing 0.05% Nonidet® P-40, ca. 7 mg/L, dye/protein = 0.4) for 24 h at 4 °C. After removing the protein solution, the wells were washed twice with 200 μL of PBST, then each compound solution (in NET-N buffer, 50 μL) was added and the plates were incubated for 1 h at RT in the dark. The wells were washed twice with 200 μL of PBST, then dried under reduced pressure for 1 h in the dark. The Cy3 dye was excited at 544 nm and emission was monitored at 590 nm using a microplate reader (Fluoroskan Ascent, Thermo Labsystems, Vantaa, Finland). The assays were typically carried out in three individual wells, and the mean value and SD were calculated. The equilibrium between dimer formation between Cy3-Hes1/Cy3-Hes1 (in solution) and Cy3-Hes1/immobilized-Hes1 allowed the detection of Cy3-Hes1/immobilized-Hes1.
Typical procedure; Nunc Immobilizer^TM Amino 96 well Plate, white (Nalge Nunc Int., NY, USA) was used for immobilizing of Hes1. The micro plate wells were incubated with 100 µl of Hes1 (10 µg/mL in PBS) 2 h at 4 °C. After removing protein solution, the wells were incubated for 2 h at 4 °C with 100 µL of 10 mM ethanolamine (in 100 mM Na2CO3 buffer, pH 9.6) to block remaining activated units on the well. Then, wells were washed twice with 200 µL of PBST (PBS containing 0.05% Tween 20).
The Cy3 dye reagent was prepared as 1 vial of Cy3 monofunctional dye reagent (succinimidylester type; GE Healthcare, Buckinghamshire, UK) in DMSO (50 µL) and stored at -20 °C. Cy3-labeled Hes1 was prepared by mixing of protein in PBS with Cy3 dye reagent in DMSO (typically 0.6 µL of DMSO solution to 1 mL of 10 mg/L protein solution in PBS) for 30 min at 4 °C in the dark. […]

As for `CC1OC(Oc2cc3c(=O)oc4c(O)c(O)cc5c(=O)oc(c2O)c3c45)C(O)C(O)C1OC(=O)c1cc(O)c(O)c(O)c1` [Compound 11, 4-O-(4″-O-galloyl-α-L-rhamnopyranosyl)ellagic acid], the remaining activity at 2.5 µM (24 h, 2.5 μM compound, 0 μM = 100, read-out: Hes1 dimer formation rate (%)) came to 50.4%. The remaining activity at 5 µM (24 h, 5 μM compound, 0 μM = 100, read-out: Hes1 dimer formation rate (%)) turned out to be 27.6%. Also, the remaining activity at 10 µM (24 h, 10 μM compound, 0 μM = 100, read-out: Hes1 dimer formation rate (%)) came to 18.1%. Moreover, the remaining activity at 25 µM (24 h, 25 μM compound, 0 μM = 100, read-out: Hes1 dimer formation rate (%)) amounted to 4.1%. The pIC50 (Cy3-labeled Hes1 / immobilized Hes1, compound 1 h at RT, read-out: Hes1 dimer formation inhibitory activity IC50) was 5.60.
